Test results published in ChEMBL document CHEMBL1145592, “Pleuromutilin derivatives having a purine ring. Part 1: new compounds with promising antibacterial activity against resistant Gram-positive pathogens” (2008).
Values after ≈ are worked out from the molar mass of the structure shown.

Columns and labels:
Assay type in all cases: functional
Enterococcus faecium = assay: Antibacterial activity against vancomycin-resistant Enterococcus faecium KU1778
Staphylococcus aureus [1] = assay: Antibacterial activity against methicillin-susceptible Staphylococcus aureus Smith
Streptococcus pneumoniae [2] = assay: Antibacterial activity against penicillin-susceptible Streptococcus pneumoniae 1
Staphylococcus aureus [3] = assay: Antibacterial activity against methicillin-susceptible Staphylococcus aureus Smith infected iv dosed mouse 1 hr after inoculation
Staphylococcus aureus [4] = assay: Antibacterial activity against methicillin-resistant Staphylococcus aureus KMP9
Moraxella catarrhalis = assay: Antibacterial activity against Moraxella catarrhalis K1209
Haemophilus influenzae = assay: Antibacterial activity against Haemophilus influenzae TH13
Streptococcus pneumoniae [5] = assay: Antibacterial activity against penicillin-resistant Streptococcus pneumoniae KT2524
Streptococcus pyogenes = assay: Antibacterial activity against Streptococcus pyogenes ATCC 12344
Streptococcus pneumoniae [6] = assay: Antibacterial activity against penicillin-susceptible Streptococcus pneumoniae ATCC 49619
Staphylococcus aureus [7] = assay: Antibacterial activity against methicillin-susceptible Staphylococcus aureus Smith infected twice iv dosed mouse 1 and 4 hrs after inoculation

SMILES | MIC (Enterococcus faecium) | MIC (Staphylococcus aureus [1]) | MIC (Streptococcus pneumoniae [2]) | ED50 (Staphylococcus aureus [3]) | MIC (Staphylococcus aureus [4]) | MIC (Moraxella catarrhalis) | MIC (Haemophilus influenzae) | MIC (Streptococcus pneumoniae [5]) | MIC (Streptococcus pyogenes) | MIC (Streptococcus pneumoniae [6]) | ED50 (Staphylococcus aureus [7])
C=C[C@]1(C)C[C@@H](OC(=O)CSC2CCN(C(=O)/C=C/n3cnc4cnc(N)nc43)CC2)[C@]2(C)[C@H](C)CC[C@]3(CCC(=O)[C@@H]32)[C@@H](C)[C@@H]1O | 0.2 µg/mL (≈ 0.301 µM) | 0.1 µg/mL (≈ 0.15 µM) | 0.39 µg/mL (≈ 0.587 µM) | > 3.13 mg/kg | 0.2 µg/mL (≈ 0.301 µM) | – | – | – | – | – | –
C=C[C@]1(C)C[C@@H](OC(=O)CSC2CCN(C(=O)CCn3cnc4ncncc43)CC2)[C@]2(C)[C@H](C)CC[C@]3(CCC(=O)[C@@H]32)[C@@H](C)[C@@H]1O | 0.1 µg/mL (≈ 0.153 µM) | 0.1 µg/mL (≈ 0.153 µM) | 0.1 µg/mL (≈ 0.153 µM) | > 3.13 mg/kg | 0.1 µg/mL (≈ 0.153 µM) | – | – | – | – | – | –
C=C[C@]1(C)C[C@@H](OC(=O)CSC2CCN(C(=O)CCn3cnc4cnc(N)nc43)CC2)[C@]2(C)[C@H](C)CC[C@]3(CCC(=O)[C@@H]32)[C@@H](C)[C@@H]1O | 0.05 µg/mL (≈ 0.075 µM) | 0.05 µg/mL (≈ 0.075 µM) | 0.05 µg/mL (≈ 0.075 µM) | < 3.13 mg/kg | 0.05 µg/mL (≈ 0.075 µM) | 0.25 µg/mL (≈ 0.375 µM) | 2 µg/mL (≈ 3 µM) | 0.063 µg/mL (≈ 0.0945 µM) | 0.063 µg/mL (≈ 0.0945 µM) | 0.125 µg/mL (≈ 0.187 µM) | –
C=C[C@]1(C)C[C@@H](OC(=O)CSC2CCN(C(=O)CCn3cnc4c(NC)nc(N)nc43)CC2)[C@]2(C)[C@H](C)CC[C@]3(CCC(=O)[C@@H]32)[C@@H](C)[C@@H]1O | 0.1 µg/mL (≈ 0.144 µM) | 0.1 µg/mL (≈ 0.144 µM) | 0.025 µg/mL (≈ 0.0359 µM) | > 3.13 mg/kg | 0.2 µg/mL (≈ 0.287 µM) | – | – | – | – | – | –
C=C[C@]1(C)C[C@@H](OC(=O)CSC2CCN(C(=O)CCn3cnc4c(N5CCOCC5)nc(N)nc43)CC2)[C@]2(C)[C@H](C)CC[C@]3(CCC(=O)[C@@H]32)[C@@H](C)[C@@H]1O | 0.2 µg/mL (≈ 0.266 µM) | 0.2 µg/mL (≈ 0.266 µM) | 0.1 µg/mL (≈ 0.133 µM) | – | 0.2 µg/mL (≈ 0.266 µM) | – | – | – | – | – | –
C=C[C@]1(C)C[C@@H](OC(=O)CSC2CCN(C(=O)CCn3cnc4c(N(C)C)nc(N)nc43)CC2)[C@]2(C)[C@H](C)CC[C@]3(CCC(=O)[C@@H]32)[C@@H](C)[C@@H]1O | 0.1 µg/mL (≈ 0.141 µM) | 0.1 µg/mL (≈ 0.141 µM) | 0.05 µg/mL (≈ 0.0704 µM) | > 3.13 mg/kg | 0.1 µg/mL (≈ 0.141 µM) | – | – | – | – | – | –
C=C[C@]1(C)C[C@@H](OC(=O)CSC2CCN(C(=O)CCn3cnc4c(N5CCNCC5)nc(N)nc43)CC2)[C@]2(C)[C@H](C)CC[C@]3(CCC(=O)[C@@H]32)[C@@H](C)[C@@H]1O | 0.25 µg/mL (≈ 0.333 µM) | 0.25 µg/mL (≈ 0.333 µM) | 0.063 µg/mL (≈ 0.0839 µM) | < 3.13 mg/kg | 0.5 µg/mL (≈ 0.666 µM) | 0.25 µg/mL (≈ 0.333 µM) | 1 µg/mL (≈ 1.33 µM) | 0.063 µg/mL (≈ 0.0839 µM) | 0.032 µg/mL (≈ 0.0426 µM) | 0.063 µg/mL (≈ 0.0839 µM) | 1.51 mg/kg
C=C[C@]1(C)C[C@@H](OC(=O)CSC2CCN(C(=O)CCCn3cnc4cnc(N)nc43)CC2)[C@]2(C)[C@H](C)CC[C@]3(CCC(=O)[C@@H]32)[C@@H](C)[C@@H]1O | 0.1 µg/mL (≈ 0.147 µM) | 0.1 µg/mL (≈ 0.147 µM) | 0.78 µg/mL (≈ 1.15 µM) | > 3.13 mg/kg | 0.2 µg/mL (≈ 0.294 µM) | – | – | – | – | – | –
C=C[C@]1(C)C[C@@H](OC(=O)CSC2CCN(C(=O)CCn3cnc4cncnc43)CC2)[C@]2(C)[C@H](C)CC[C@]3(CCC(=O)[C@@H]32)[C@@H](C)[C@@H]1O | 0.05 µg/mL (≈ 0.0767 µM) | 0.05 µg/mL (≈ 0.0767 µM) | 0.1 µg/mL (≈ 0.153 µM) | > 3.13 mg/kg | 0.05 µg/mL (≈ 0.0767 µM) | – | – | – | – | – | –
C=C[C@]1(C)C[C@@H](OC(=O)CSC2CCN(C(=O)Cn3cnc4cncnc43)CC2)[C@]2(C)[C@H](C)CC[C@]3(CCC(=O)[C@@H]32)[C@@H](C)[C@@H]1O | 0.2 µg/mL (≈ 0.314 µM) | 0.2 µg/mL (≈ 0.314 µM) | 1.56 µg/mL (≈ 2.45 µM) | – | 0.2 µg/mL (≈ 0.314 µM) | – | – | – | – | – | –
C=C[C@]1(C)C[C@@H](OC(=O)CSC2CCN(C(=O)CCn3cnc4c(N5CCCC5)nc(N)nc43)CC2)[C@]2(C)[C@H](C)CC[C@]3(CCC(=O)[C@@H]32)[C@@H](C)[C@@H]1O | 0.39 µg/mL (≈ 0.53 µM) | 0.39 µg/mL (≈ 0.53 µM) | 0.2 µg/mL (≈ 0.272 µM) | > 3.13 mg/kg | 0.39 µg/mL (≈ 0.53 µM) | – | – | – | – | – | –
C=C[C@]1(C)C[C@@H](OC(=O)CSC2CCN(C(=O)CCn3cnc4c(N)nc(N)nc43)CC2)[C@]2(C)[C@H](C)CC[C@]3(CCC(=O)[C@@H]32)[C@@H](C)[C@@H]1O | 0.05 µg/mL (≈ 0.0733 µM) | 0.05 µg/mL (≈ 0.0733 µM) | 0.025 µg/mL (≈ 0.0367 µM) | > 3.13 mg/kg | 0.1 µg/mL (≈ 0.147 µM) | – | – | – | – | – | –
C=C[C@]1(C)C[C@@H](OC(=O)CSC2CCN(C(=O)CCn3cnc4c(N)ncnc43)CC2)[C@]2(C)[C@H](C)CC[C@]3(CCC(=O)[C@@H]32)[C@@H](C)[C@@H]1O | 0.39 µg/mL (≈ 0.585 µM) | 0.2 µg/mL (≈ 0.3 µM) | 0.78 µg/mL (≈ 1.17 µM) | > 3.13 mg/kg | 0.39 µg/mL (≈ 0.585 µM) | – | – | – | – | – | –
CC[C@]1(C)C[C@@H](OC(=O)CSc2nnc(N)[nH]2)[C@]2(C)[C@H](C)CC[C@]3(CCC(=O)[C@@H]32)[C@@H](C)[C@@H]1O | 0.25 µg/mL (≈ 0.522 µM) | 0.5 µg/mL (≈ 1.04 µM) | – | – | 2 µg/mL (≈ 4.18 µM) | 0.032 µg/mL (≈ 0.0669 µM) | 0.5 µg/mL (≈ 1.04 µM) | 0.5 µg/mL (≈ 1.04 µM) | 0.25 µg/mL (≈ 0.522 µM) | 0.5 µg/mL (≈ 1.04 µM) | 6.88 mg/kg
C=C[C@]1(C)C[C@@H](OC(=O)CSC2CCN(C(=O)CCn3cnc4c(N5CCC(CNC)C5)nc(N)nc43)CC2)[C@]2(C)[C@H](C)CC[C@]3(CCC(=O)[C@@H]32)[C@@H](C)[C@@H]1O (some centres not stated) | 0.5 µg/mL (≈ 0.642 µM) | 0.5 µg/mL (≈ 0.642 µM) | – | 1.01 mg/kg | 4 µg/mL (≈ 5.13 µM) | 0.25 µg/mL (≈ 0.321 µM) | 4 µg/mL (≈ 5.13 µM) | 0.25 µg/mL (≈ 0.321 µM) | 0.032 µg/mL (≈ 0.0411 µM) | 0.125 µg/mL (≈ 0.16 µM) | –
